Measurements: patent US5523296A, “1,3-benzodioxole and 1,2-dialkoxybenzene derivatives as ocular hypotensive agents” (Allergan, Inc., priority 1994, dated 1996)

Columns and labels:
[1] = test system: intraocular pressure in dog eyes; assay: intraocular pressure in eyes of dogs (pneumatonometry); assay type: in vivo, beagle dogs; details: 6 hours after administr., dog eye
Procedure: The assay is descibed as follows: male and female beagle dogs weighing 10-15 kg had been trained for a minimum of 2 months so that intraocular pressure could be measured without the use of restraining devices. Intraocular pressure was measured by pneumatonometry using applanation tonometers (Alcon). One minute prior to tonometry, 25 μl of proparacaine (Allergan, Irvine Calif.) was applied to minimize ocular discomfort during the procedure. Determination of the effects of the compounds of the invention on intraocular pressure involved administration of 1 to 25 μl of solution of the compound to one eye and an equal volume of vehicle to the contralateral eye as a control.
The effect of the compounds of the invention to lower intraocular pressure in dog eyes, in accordance with the above-described assay is shown in Table 1 with respect to the following compounds: […]

Swiss 3T3 cells = assay: inhibition of DNA synthesis: incorporation of tritium labeled thymidine into Swiss 3T3 cells; assay type: cell-based, mouse; details: 22 hours incubation, 5 hours pulse-labeling, CPM per μg DNA, mean of quadruplicates, vehicle 2601
Procedure: In addition, compounds of the invention were also found to inhibit DNA synthesis as observed in an assay where the incorporation of tritium labeled thymidine into Swiss 3T3 cells is measured. The assay is described as follows.
Swiss mouse 3T3 cells were maintained in Dulbecco's modified Eagle's medium (DMEM) low glucose and supplemented with 10% fetal bovine serum FBS), 2 mM 1-glutamine and 1% antibiotic-antimycotic 100×. The cultures were incubated in 5% CO2 in air at 37° C. Confluent cultures were trypsinized and plated in quadruplicate cultures for experiments. Cells were plated at 1×10^5 cells per 35 mm well in DMEM containing 10% FBS in 6-well cluster plates and allowed to become confluent in 3 days. The cells were then made quiescent by washing them with Hank's balanced salt solution (HBSS) and incubating them for 24 hours in DMEM with 0.5% FBS. The cultures were then refed fresh DMEM containing 0.5% FBS and various concentrations of the test compounds. All compounds were dissolved in absolute ethanol, diluted with sterile filtered normal saline and added to the medium so that the final ethanol control cultures were incubated in medium containing 0.01% or less […]. […]
Pulse-labeling of the cultures consisted of collecting the conditioned, drug-treated or control containing media, then adding 1μ Ci/ml [^3 H]-TdR and incubating the cultures in the [^3 H]-TdR containing medium for 5 hours. […] Radioactivity was measured by liquid-scintillation counting using Beckman HP cocktail. […] After centrifugation as before, an aliquot of the supernatant containing [^3 H]-TdR incorporated into DNA (S2) was assayed for radioactivity by scintillation counting.
An aliquot of the remaining S2 supernatant was assayed for quantity of DNA by the diphenylamine method. […] Absorbance of the DNA standards and samples was measured in a Beckman Biomek spectrophotometer at 600 nm wavelength.
The data was expressed as CPM ([^3 H]-TdR incorporated into DNA) per μg DNA and the mean of the quadruplicate samples was obtained for each experiment. […]

## CCCCCC(O)c1cc(OC)c(OC)cc1CCCCC(=O)O (racemic) [Compound 4, (±)-5-[2-(1-Hydroxy)hexyl-4,5-dimethoxyphenyl-]-1-pentanoic acid]
[1]; 0.1 %
  Change in IOP: -1.2 mm of Hg

## CCCCCC(O)c1cc2c(cc1CCCCC(=O)O)OCO2 (racemic) [Compound 5, (±)-5-[6-(1-hydroxy)hexyl]-1,3-benzodioxol-5-yl]-pentanoic acid]
Swiss 3T3 cells; 10^-5 M
  CPM ([3H]-TdR incorporated into DNA): 1454 CPM
Swiss 3T3 cells; 10^-6 M
  CPM ([3H]-TdR incorporated into DNA): 1598 CPM
Swiss 3T3 cells; 10^-7 M
  CPM ([3H]-TdR incorporated into DNA): 2102 CPM

## CCCCCC(O)c1cc2c(cc1CCCCCO)OCO2 (racemic) [Compound 3, (±)-5-[6-(1-hydroxy)hexyl]-1,3-benzodioxol-5-yl]-pentanol]
[1]; 0.01 %
  Change in IOP: -3.0 mm of Hg
[1]; 0.1 %
  Change in IOP: -4.2 mm of Hg

## OCCCCCc1cc2c(cc1C(O)CCc1cccs1)OCO2 (racemic) [Compound 6, (±)-5-[[6-(1-hydroxy-3-(2-thienyl)propyl]-1,3-benzodioxolyl]pentanol]
[1]; 0.1 %
  Change in IOP: -1.1 mm of Hg

## COC(=O)CCCCc1cc2c(cc1C(O)CCc1ccccc1)OCO2 (racemic) [Compound 1, (±)-Methyl5-[6-(1-hydroxy-3-phenylpropyl)]-1,3-benzodioxol-5-yl]-pentanoate]
[1]; 0.1 %
  Change in IOP: -1.0 mm of Hg

## OCCCCCc1cc2c(cc1C(O)CCc1ccccc1)OCO2 (racemic) [Compound 2, (±)-5-[6-(1-hydroxy-3-phenylpropyl)]-1,3-benzodioxol-5yl]pentanol]
[1]; 0.1 %
  Change in IOP: -1.25 mm of Hg

## O=C(O)CCCCc1cc2c(cc1C(O)CCc1cccs1)OCO2 (racemic) [Compound 7, (±)-5-[[6-(1-hydroxy-3-(2-thienyl)propyl)]-1,3-benzodioxolyl]pentanoic acid]
[1]; 0.1 %
  Change in IOP: -1.0 mm of Hg
